Laboratory results as given in PubChem BioAssay (NCI).
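Tested at 5 concentrations; 48 h exposure; 96-well plates; endpoints linearly interpolated, else capped at highest concentration. Abbreviation: GI50, concentration required for 50% inhibition of growth. TGI denotes the concentration required for complete inhibition of growth.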

How the values were obtained:
Test in all cases: growth of human tumour cells (NCI), 48 h
[1] = test system: 786-0 renal
[2] = test system: A498 renal
[3] = test system: A549 NSCLC
[4] = test system: ACHN renal
[5] = test system: CAKI-1 renal
[6] = test system: CCRF-CEM leukemia
[7] = test system: COLO 205 colon
[8] = test system: DU-145 prostate
[9] = test system: HCT-116 colon
[10] = test system: HCT-15 colon
[11] = test system: HL-60(TB) leukemia
[12] = test system: HOP-62 NSCLC
[13] = test system: HS 578T breast
[14] = test system: HT29 colon
[15] = test system: IGROV1 ovarian
[16] = test system: K-562 leukemia
[17] = test system: KM12 colon
[18] = test system: LOX IMVI melanoma
[19] = test system: M14 melanoma
[20] = test system: MCF7 breast
[21] = test system: MDA-MB-231 breast
[22] = test system: MDA-MB-435
[23] = test system: NCI-H226 lung
[24] = test system: NCI-H23 lung

CC(=O)CCc1ccc(Oc2c3ccccc3nc3occc23)cc1 was tested, and the GI50 [1] was 18.5 µM, the TGI [1] was 45.2 µM and the GI50 [2] was 15.8 µM. The TGI [2] was 29.2 µM, the GI50 [3] was 15.6 µM and the TGI [3] was 35.2 µM. It also gave a GI50 [4] of 19.1 µM, a TGI [4] of 49.6 µM and a GI50 [5] of 18.2 µM. It also gave a TGI [5] of 42 µM, a GI50 [6] of 24.1 µM and a TGI [6] of 94.7 µM. The GI50 [7] was 16.8 µM, the TGI [7] was 33.1 µM and the GI50 [8] was 14.8 µM. It also gave a TGI [8] of 34.1 µM, a GI50 [9] of 19.1 µM and a TGI [9] of 79.5 µM. The GI50 [10] was 18.6 µM, the TGI [10] was 73.7 µM and the GI50 [11] was 8.67 µM. It also gave a TGI [11] of 74.5 µM, a GI50 [12] of 20.1 µM and a TGI [12] of 35.4 µM. The GI50 [13] was 20.4 µM, the TGI [13] was 44.5 µM and the GI50 [14] was 18 µM. For the same molecule, the TGI [14] was 50.6 µM, the GI50 [15] was 33.9 µM and the TGI [15] was > 100 µM. The GI50 [16] was 25.2 µM, the TGI [16] was > 100 µM and the GI50 [17] was 16.1 µM. It also gave a TGI [17] of 40 µM, a GI50 [18] of 14.8 µM and a TGI [18] of 41.8 µM. It also gave a GI50 [19] of 15.3 µM, a TGI [19] of 29.2 µM and a GI50 [20] of 21.3 µM. The TGI [20] was 46.3 µM, the GI50 [21] was 25.5 µM and the TGI [21] was > 100 µM. It also gave a GI50 [22] of 17.7 µM, a TGI [22] of 43.9 µM and a GI50 [23] of 15.5 µM. For the same molecule, the TGI [23] was 34.3 µM and the GI50 [24] was 13 µM.
